# Test results as given in patent US11925633B2, “Drug for preventing and/or treating dementia” (NATIONAL CEREBRAL AND CARDIOVASCULAR CENTER, priority 2016, dated 2024).
# Like-named read-outs stand apart in the source and are kept apart here.
# What was measured:
# APP-SwDI transgenic mice [1] = experiment: Immunohistochemistry for Aβ deposition on the cerebral blood vessel wall (hippocampus region); type: in vivo, mouse; conditions: 8-month-old mice, drug-containing feed from 4-week-old to 8-month-old; compared to APP-SwDI mice on normal feed
# Procedure: The cilostazol-containing feed, the taxifolin-containing feed, and the feed containing cilostazol and taxifolin were administered from 4-week-old to 8-month-old. The concentration of cilostazol in the cilostazol-containing feed was 0.3 wt %, and the concentration of taxifolin in the taxifolin-containing feed was 3 wt %. The concentration of cilostazol and the concentration of taxifolin in the feed containing cilostazol and taxifolin were respectively 0.3 wt % and 3 wt %. All the APP-SwDI transgenic mice used were homozygous male mice. The 4-week-old APP-SwDI transgenic mice are considered to be in the initial stage of accumulation of Aβ in the brain blood vessel, i.e., the initial stage of cerebral amyloid angiopathy, and neuronal loss is considered to be not progressing much in this stage. The brain of an 8-month-old APP-SwDI transgenic mice was perfusion fixed using 4% para-formaldehyde, the removed brain was dehydration-treated for a whole day. A paraffin block of the fixed brain tissue was prepared, and the paraffin block was sliced in 6 microns by microtome. […] The hippocampus region was traced in a section which was cut 1 mm outside the midline, and the percentage of the Aβ accumulation area in the region of interest was measured by using image analysis software ImageJ (National Institutes of Health. USA). […]
# APP-SwDI transgenic mice [2] = experiment: Water maze test (Morris water maze, with probe test); type: in vivo, mouse; conditions: 8-month-old mice; for residence time in Zone-1 in the probe test (visuospatial memory): fifth day, platform removed, 60 seconds; for swimming time to reach the platform (visuospatial memory): first day to fourth day, 4 trials per day
# Procedure: The cilostazol-containing feed, the taxifolin-containing feed, and the feed containing cilostazol and taxifolin were administered from 4-week-old to 8-month-old. The concentration of cilostazol in the cilostazol-containing feed was 0.3 wt %, and the concentration of taxifolin in the taxifolin-containing feed was 3 wt %. The concentration of cilostazol and the concentration of taxifolin in the feed containing cilostazol and taxifolin were respectively 0.3 wt % and 3 wt %. All the APP-SwDI transgenic mice used were homozygous male mice. The water maze test is a test for evaluating the visuospatial cognitive ability of mouse by utilizing the habit of avoiding water and escaping therefrom. The water maze used in this experiment was Morris water maze manufactured by Brain Science Idea, having a circular pool of a water tank entirely painted black with inner diameter 120 cm, wall height 30 cm. One transparent acrylic circular platform for escape with diameter 10 cm, height 10 cm was set at 30 cm from the center of the pool and 30 cm from the periphery. Clues such as poster, photograph and the like were arranged on the wall so that the mice could memorize various spatial arrangements in the surroundings, and the locations of these clues were always unchanged during the experiment. The pool was filled with water to a depth of 11 cm, and a platform was installed at about 1 cm below the water surface as in FIG. 3(A). In all tests, Zone-2 in FIG. 3(B) was set as a start position. Zone-1 to Zone-4 show quadrant regions in the circular pool. The mice were gently placed on the water surface while facing the wall of the pool so that they could not see the location of the platform. The tests were performed from the first day to the fourth day, 4 trials per day. In each trial, the total swimming distance and the time required for reaching the platform (swimming time) were measured. […] On the fifth day, the mice were made to swim for 60 seconds with the platform removed from the pool (probe test). In the test, the residence time in Zone-1 where the goal was placed from the first day to the fourth day was measured. […] Error bars show standard error. […] Error bars show standard error.
# APP-SwDI transgenic mice [3] = experiment: Carbon dioxide gas inhalation test (cerebral blood flow, laser speckle blood flow imager); type: in vivo, mouse; conditions: 12-month-old mice; for cerebral blood flow increase rate after 5% CO2 supply: feed from 4-week-old to 12-month-old, compared to APP-SwDI mice on normal feed; for time course of the cerebral blood flow increase rate after 5% CO2 supply: measured for 5 min after start of 5% CO2; for significance of the difference in cerebral blood flow increase rate versus normal feed group (repeated measurement and variance analysis): versus APP-SwDI mice on normal feed
# Procedure: Analysis was performed by using 12-month-old C57BL/6J mice administered with a normal feed (n=4), APP-SwDI transgenic mice administered with a normal feed (n=10), APP-SwDI transgenic mice administered with a cilostazol-containing feed (n=4), APP-SwDI transgenic mice administered with a taxifolin-containing feed (n=5), and APP-SwDI transgenic mice administered with a feed containing cilostazol and taxifolin (n=7), totaling 30 mice. The feeds containing cilostazol, taxifolin, or cilostazol and taxifolin were administered from 4-week-old to 12-month-old. The concentration of cilostazol in the cilostazol-containing feed was 0.3 wt % and the concentration of taxifolin in the taxifolin-containing feed was 3 wt %. All the APP-SwDI transgenic mice used were homozygous male mice. The mice were anesthetized by intraperitoneal injection of α-chloralose and urethane. Then, endotracheal intubation was performed and the baseline of the cerebral blood flow was measured. Thereafter, 5% CO2 was supplied, and the cerebral blood flow was sequentially measured for 5 min. Relative increase rate was measured from the changes in the cerebral blood flow between the baseline and after 5% CO2 supply. The cerebral blood flow was measured by a laser speckle blood flow imager (OZ-2, OMEGAWAVE, INC.). FIG. 2 is a graph showing mean of relative increase rate of the cerebral blood flow after supply of 5% CO2 in the mice of each group. […] Error bars show standard error.
# [4] = administration of cilostazol; cilostazol package insert; cited from earlier work
# [5] = administration of cilostazol; non-patent documents 1, 2; cited from earlier work
# [6] = mouse, in vivo
# Procedure: (§1) In the “APP-SwDI transgenic mice administrated with a feed containing cilostazol and taxifolin (n=3)”, as mentioned above, the blood concentration of this mouse was measured after administration of the feed containing cilostazol and taxifolin.
# APP-SwDI transgenic mice [7] = conditions: compared to APP-SwDI mice on control feed; non-patent document 3; cited from earlier work
# amyloid beta = conditions: administration of cilostazol; non-patent documents 1, 2; cited from earlier work
# [8] = Blood concentration after administration of the feed containing cilostazol and taxifolin
# Procedure: as §1
# APP-SwDI transgenic mice [9] = experiment: Y-maze test (alternation response rate); type: in vivo, mouse; conditions: 13-month-old mice, feed from 4-week-old to 13-month-old; test for 8 minutes
# Procedure: The cilostazol-containing feed, the taxifolin-containing feed, and the feed containing cilostazol and taxifolin were administered from 4-week-old to 13-month-old. The concentration of cilostazol in the cilostazol-containing feed was 0.3 wt %, and the concentration of taxifolin in the taxifolin-containing feed was 3 wt %. The concentration of cilostazol and the concentration of taxifolin in the feed containing cilostazol and taxifolin were respectively 0.3 wt % and 3 wt %. All the APP-SwDI transgenic mice used were homozygous male mice. In the Y-maze test, according to the general practice method, the alternation response rate was measured from the results of the test for 8 minutes. […] FIG. 7 is a graph showing an average alternation response rate of the mice of each group. Error bars show standard error.
# APP-SwDI transgenic mice [10] = experiment: Hair loss score (fighting); type: in vivo, mouse; conditions: 13-month-old mice; compared to APP-SwDI mice on normal feed
# Description: Hair loss occurs when mice fight. Thus, the extent of hair loss of each mouse was described in 4 grades of Grade: 0-3 and taken as a hair loss score. Almost normal state is Grade: 0 and hair loss over nearly whole body is Grade: 3. Less than 50% of the whole body surface was classified as Grade: 1 and not less than 50% was classified as Grade: 2.
# The information of mice was concealed and two evaluators independently evaluated the hair loss score. Mean of each evaluation was taken as the hair loss score of the mice.
# Error bars show standard error.
# APP-SwDI transgenic mice [11] = experiment: Survival curve (cumulative survival rate); type: in vivo, mouse; conditions: observation within 500 days after birth; slaughter not included
# Description: 1, 2014 to Nov. 30, 2015, were used to plot and analyze a survival curve of the mice.
SMILES,intracerebral Aβ accumulation amount (APP-SwDI transgenic mice [1]),residence time in Zone-1 in the probe test (visuospatial memory) (APP-SwDI transgenic mice [2]),swimming time to reach the platform (visuospatial memory) (APP-SwDI transgenic mice [2]),cerebral blood flow increase rate after 5% CO2 supply (APP-SwDI transgenic mice [3]),time course of the cerebral blood flow increase rate after 5% CO2 supply (APP-SwDI transgenic mice [3]),significance of the difference in cerebral blood flow increase rate versus normal feed group (repeated measurement and variance analysis) (APP-SwDI transgenic mice [3]),"cerebral blood flow in the vertebral artery, internal carotid artery, cerebral cortex, hypothalamus and the like [4]",reduction of cognitive function [5],presence in the blood (compound or its metabolite) [6],alternation response in the Y-maze test (APP-SwDI transgenic mice [7]),intracerebral accumulation of amyloid beta (amyloid beta),presence in the blood (compound or its metabolite) [8],alternation response rate (working memory) (APP-SwDI transgenic mice [9]),hair loss score (Grade 0-3) (APP-SwDI transgenic mice [10]),death of mice (cumulative survival rate) (APP-SwDI transgenic mice [11])
"O=C1CCc2cc(OCCCCc3nnnn3C3CCCCC3)ccc2N1 [cilostazol, 6-[4-(1-cyclohexyl-1H-tetrazol-5-yl)butoxy]-3,4-dihydrocarbostyril]",significant decrease,visuospatial memory disorder improving effect of cilostazol was considered to be limited,visuospatial memory disorder improving effect of cilostazol was considered to be limited,increased,increased after a certain period of time after 5% CO2 supply,a significant difference was absent,increases,suppressed,detected in the blood,increased,suppressed,–,–,–,–
O=C1c2c(O)cc(O)cc2O[C@H](c2ccc(O)c(O)c2)[C@H]1O [taxifolin],significant decrease,the same results as in the C57BL/6J mouse,the same results as in the C57BL/6J mouse,increased,rapidly increased after 5% CO2 supply,a significant difference was absent,–,–,–,–,–,detected in the blood,significant improvement was not observed,clearly severe hair loss,died clearly more than other mice
